Source: ChEMBL document CHEMBL4419169, “Novel Ferroportin Inhibitors” (2018)

Tests used:
Assay type in all cases: cell-based
[1] = molecular target: T1, Ferroportin (Homo sapiens, UniProt Q9NP59); test: Inhibition of GFP-tagged human ferroportin expressed in HEK293 #354 cells assessed as induction of ferroportin internalization and degradation incubated overnight by FACS assay; conditions: read-out: EC50 (the source's name)
T1 sequence (Q9NP59 whole entry): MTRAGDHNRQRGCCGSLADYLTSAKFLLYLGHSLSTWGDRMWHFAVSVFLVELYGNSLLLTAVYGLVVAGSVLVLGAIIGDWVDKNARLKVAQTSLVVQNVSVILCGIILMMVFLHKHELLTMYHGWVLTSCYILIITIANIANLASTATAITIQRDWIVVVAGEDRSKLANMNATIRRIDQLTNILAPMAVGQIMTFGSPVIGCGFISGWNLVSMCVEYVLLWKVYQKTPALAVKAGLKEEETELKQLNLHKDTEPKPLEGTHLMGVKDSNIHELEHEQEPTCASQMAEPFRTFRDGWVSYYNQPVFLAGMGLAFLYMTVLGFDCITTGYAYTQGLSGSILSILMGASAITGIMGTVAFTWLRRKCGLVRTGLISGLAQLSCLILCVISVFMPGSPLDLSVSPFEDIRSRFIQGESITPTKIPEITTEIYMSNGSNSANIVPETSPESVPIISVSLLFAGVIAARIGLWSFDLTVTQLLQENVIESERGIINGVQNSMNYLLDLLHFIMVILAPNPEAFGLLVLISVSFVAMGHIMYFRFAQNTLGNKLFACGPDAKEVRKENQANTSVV

[2] = molecular target: T1, Ferroportin; test: Inhibition of GFP-tagged human ferroportin expressed in HEK293 #354 cells assessed as reduction in Fpn-mediated iron efflux incubated overnight by iron regulatory element -driven beta-lactamase reporter gene assay
[3] = molecular target: T2, Ferroportin (Mus musculus, UniProt Q9JHI9); test: Inhibition of ferroportin in mouse J774 cells assessed as reduction in binding of hepcidin to ferroportin pre-incubated for 15 mins before TMR-hepcidin addition and further incubated for 2 hrs by fluorescence based hepcidin internalization assay
T2 sequence (Q9JHI9 whole entry): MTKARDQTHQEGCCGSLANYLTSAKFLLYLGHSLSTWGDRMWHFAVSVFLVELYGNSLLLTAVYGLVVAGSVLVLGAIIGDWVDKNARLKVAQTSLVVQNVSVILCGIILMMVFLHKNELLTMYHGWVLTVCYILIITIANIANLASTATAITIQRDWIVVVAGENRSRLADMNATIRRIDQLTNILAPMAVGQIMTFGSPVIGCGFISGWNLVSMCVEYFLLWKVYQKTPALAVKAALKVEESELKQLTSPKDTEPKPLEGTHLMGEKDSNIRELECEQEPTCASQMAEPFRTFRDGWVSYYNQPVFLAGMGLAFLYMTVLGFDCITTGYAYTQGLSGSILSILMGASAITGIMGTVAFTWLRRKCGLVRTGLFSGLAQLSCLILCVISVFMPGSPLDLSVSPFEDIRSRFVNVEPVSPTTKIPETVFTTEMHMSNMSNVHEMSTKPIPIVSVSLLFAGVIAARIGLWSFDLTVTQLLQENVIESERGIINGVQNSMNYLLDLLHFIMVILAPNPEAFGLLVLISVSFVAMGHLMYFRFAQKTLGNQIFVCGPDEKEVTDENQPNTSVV

## O=C(NCc1ncccc1F)c1cn(CCNCCc2nc3ccccc3[nH]2)nn1
[1]
  DC50: 69 nM
[2]
  EC50: 170 nM
[3]
  IC50: 11 nM
